Patent publication US5187157A, “Peptide boronic acid inhibitors of trypsin-like proteases” (Du Pont Merck Pharmaceutical Company, priority 1988, dated 1993)
Residues, ends and D or L forms follow the SMILES beside them. *: point of attachment. X1 = CC1(C)C2CC3OB(C(CCCNC(=N)N)N*)OC3(C)C1C2; X2 = CC1(C)C2CC3OB(C(CCCSC(=N)N)N*)OC3(C)C1C2; X3 = CC1(C)C2CC3OB(C(CCCN)N*)OC3(C)C1C2; Boc = CC(C)(C)OC(=O)*

The compounds below were run against T1, Human thrombin (Homo sapiens, UniProt P00734) (assay: Inhibition of Thrombin (Esterase Activity)). Details: inhibitor 5 nM; activity remaining 10 to 20 min after initiation.
T1 construct: purchased R.Q.P. Laboratories, South Bend, IN Lot HT102
Assay type: biochemical
Method: In the Examples which follow, the hydrolytic activity of each enzyme is measured in both the presence and absence of inhibitor and the percent enzyme activity determined. […] A steady state is reached fairly rapidly and nears completion within 5 min. Activity is evaluated between 10-20 min after the components are mixed to insure that reaction components are at equilibrium. The lowest concentration of inhibitor tested is determined by the estimated concentration of enzyme. […] The maintenance of pseudo-first-order reaction conditions and the sensitivity of the respective assays sets the lowest limit level of inhibitor tested at 10 nM for kallikrein inhibitors and 5 nM for thrombin inhibitors.
A stock solution of thrombin was prepared in 0.010M PIPES Buffer, pH 6.0, containing 0.75 M sodium chloride. […] The initial concentration of substrate was 0.10 mM and the concentration of thrombin was 1.0 nM (based on weight).
`Br.CC1(C)C2CC3OB(C(CCCSC(=N)N)NC(=O)C4CCCN4C(=O)C(N)Cc4ccccc4)OC3(C)C1C2.Cl` (stereo not drawn) [H--(D)Phe--Pro--boroIrg--C10 H16.HBr.HCl, H-(D)Phe-Pro-boroIrg-C10 H16.HBr,HCl] was tested, and the “Percent Activity” value was 4%.

Same assay, conditions: inhibitor 10 nM; activity remaining 10 to 20 min after initiation
`Br.Br.CC1(C)C2CC3OB(C(CCCSC(=N)N)NC(=O)C(Cc4ccccc4)NC(=O)C(N)Cc4ccccc4)OC3(C)C1C2` (stereo not drawn) [H--(D)Phe--Phe-- boroIrg--C10 H16.2HBr, H-(D)Phe-Phe-boroIrg-C10 H16.2HBr] was tested, and the “Percent Activity” value was 49%.
For `Br.Br.CC(C)CC(N)C(=O)NCC(=O)NC(CC(C)C)C(=O)NC(C)C(=O)NC(CCCSC(=N)N)B1OC2CC3CC(C3(C)C)C2(C)O1` (stereo not drawn) [H-Leu-Gly-Leu-Ala-boroIrg-C10 H16.2HBr] (H-LGLA-X2; configuration not given here), the “Percent Activity” value was 37%.
`Br.CC(C)CC(NC(=O)CNC(=O)C(CC(C)C)NC(=O)OC(C)(C)C)C(=O)NC(C)C(=O)NC(CCCSC(=N)N)B1OC2CC3CC(C3(C)C)C2(C)O1` (stereo not drawn) [Boc-Leu-Gly-Leu-Ala-boroIrg-C10 H16.HBr] (Boc-LGLA-X2; configuration not given here) was tested, and the “Percent Activity” value was 66%.
With “Bz-Glu(OBu)-Gly-boroIrg-C10 H16.HBr [Bz--Glu(OBu--Gly--boroIrg--C10 H16.HBr]” the “Percent Activity” value was 59%.
`CC(C)CC(N)C(=O)NCC(=O)NC(CC(C)C)C(=O)NC(C)C(=O)NC(CCCNC(=N)N)B1OC2CC3CC(C3(C)C)C2(C)O1.Cl.O=S(=O)(O)c1ccccc1` (stereo not drawn) [H-Leu-Gly-Leu-Ala-boroArg-C10 H16.HCl.benzene sulfonic acid] (H-LGLA-X1; configuration not given here) was tested, and the “Percent Activity” value was 25%.

Same assay, conditions: inhibitor 100 nM; activity remaining 10 to 20 min after initiation
In the case of `Br.CC1(C)C2CC3OB(C(CCCSC(=N)N)NC(=O)CNC(=O)CNC(=O)C(Cc4ccccc4)NC(=O)OCc4ccccc4)OC3(C)C1C2` (stereo not drawn) [Z--Phe--Gly--Gly--boroIrg--C10 H16.HBr, Z-PheGly-Gly-boroIrg-C10 H16.HBr], the “Percent Activity” value is reported as 46%.

Same assay, conditions: inhibitor 1000 nM; activity remaining 10 to 20 min after initiation
In the case of `Br.Br.CC(=O)NC(C)C(=O)NC(CCCCN)C(=O)NC(CCCSC(=N)N)B1OC2CC3CC(C3(C)C)C2(C)O1` (stereo not drawn) [Ac--Ala--Lys--boroIrg--C10 H16.2HBr, Ac-Ala-Lys-boroIrg-C10 H16.2HBr], the “Percent Activity” value is reported as 68%.
In the case of `Br.CC1(C)C2CC3OB(C(CCCSC(=N)N)NC(=O)CNC(=O)C(CCC(=O)O)NC(=O)c4ccccc4)OC3(C)C1C2` (stereo not drawn) [Bz--Glu--Gly--boroIrg-- C10 H16.HBr, Bz-Glu-Gly-boroIrg-C10 H16.HBr], the “Percent Activity” value is reported as 39%.
In the case of `CC(C)CC(NC(=O)CNC(=O)C(CC(C)C)NC(=O)OC(C)(C)C)C(=O)NC(C)C(=O)NC(CCCN)B1OC2CC3CC(C3(C)C)C2(C)O1.O=S(=O)(O)c1ccccc1` (stereo not drawn) [Boc-Leu-Gly-Leu-Ala-boroOrn-C10 H16] (Boc-LGLA-X3; configuration not given here), the “Percent Activity” value is reported as 24%.
For `Br.CC1(C)C2CC3OB(C(CCCSC(=N)N)NC(=O)C(Cc4ccccc4)NC(=O)C4CCCN4C(=O)c4ccccc4)OC3(C)C1C2` (stereo not drawn) [Bz--Pro--Phe--boroIrg--C10 H16.HBr, Bz-Pro-Phe-boroIrg-C10 H16.HBr], the “Percent Activity” value was 21%.

Same assay, conditions: inhibitor 10000 nM; activity remaining 10 to 20 min after initiation
`Br.Br.CC(N)C(=O)NC(Cc1ccccc1)C(=O)NC(CCCSC(=N)N)B1OC(C)(C)C(C)(C)O1` (stereo not drawn) [H--Ala--Phe--(D,L)boroIrg--C6 H12.2HBr, H-Ala-Phe-(D,L)boroIrg-C6 H12.2HBr] was tested, and the “Percent Activity” value was 23%.
With `Br.Br.CC(N)C(=O)NC(Cc1ccccc1)C(=O)NC(CCCCSC(=N)N)B1OC(C)(C)C(C)(C)O1` (stereo not drawn) [H-Ala-Phe-(D,L)boroHomoIrg-C6 H12.2HBr] the “Percent Activity” value was 47%.
“H-A]a-Phe-(D,L)boroLys-C6 H12.TFA.benzene sulfonic acid [H--Ala--Phe--D,L)boroLys--C6 H12.2HCl]” was tested, and the “Percent Activity” value was 89%.
For `CC(=O)NC(Cc1ccccc1)C(=O)NC(CCCCN)B1OC(C)(C)C(C)(C)O1.Cl` (stereo not drawn) [Ac--Phe--boroLys--C6 H12.HCl, Ac-Phe-boroLys-C6 H12.benzene sulfonic acid], the “Percent Activity” value was 97%.
